The target in the assay is hKIF18A (1-374) (Homo sapiens (Human), UniProt Q8NI77). In words: Inhibition of KIF18A microtubule-dependent ATPase activity (ADP-Glo). In kind it is biochemical. Conditions: 4 nM hKIF18A (1-374). As to the method: Test compounds were plated in a 3× dilution scheme in a 384-well plate. Assay buffer: 80 mM PIPES (pH 6.9), 1 mM MgCl2, 75 mM KCl, 1 mM EGTA, 1 mM DTT, 0.01% BSA, 0.005% Tween-20, 1 μM Taxol in H2O. […] After incubation at room temperature for 30 min, 2.5 μL of microtubule mix was added [0.2 mg/mL pre-formed microtubules, 2.0 mM ATP in assay buffer], the plate was centrifuged for 30 s and then incubated at 28° C. for 60 min. 5 μL of Promega® ADP-Glo Max R1 was added, the plate was centrifuged for 30 s, and the mixture incubated for 4 h at room temperature. 10 μL of Promega® ADP-Glo Max R2 was added, the plate centrifuged for 30 s, and incubated for 60 min at room temperature. Luminescence was measured with an Envision plate reader, and % Inhibition was calculated for each well as: ([max−min]−[test−min])/[max−min]. IC50 values were calculated from concentration vs. % Inhibition data via a four-parameter variable slope model.
hKIF18A (1-374), sequence (Q8NI77 1-374): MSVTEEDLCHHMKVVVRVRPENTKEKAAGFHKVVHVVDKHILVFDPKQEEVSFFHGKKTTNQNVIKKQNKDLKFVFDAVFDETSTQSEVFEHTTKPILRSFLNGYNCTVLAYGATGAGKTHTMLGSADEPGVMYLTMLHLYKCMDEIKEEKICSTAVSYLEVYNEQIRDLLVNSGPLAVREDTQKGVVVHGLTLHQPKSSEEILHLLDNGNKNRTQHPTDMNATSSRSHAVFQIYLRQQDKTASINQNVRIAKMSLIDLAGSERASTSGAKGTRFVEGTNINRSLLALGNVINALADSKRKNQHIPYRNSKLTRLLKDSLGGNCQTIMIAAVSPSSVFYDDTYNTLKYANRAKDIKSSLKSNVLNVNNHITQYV
Molecule `O=S(=O)(CCO)Nc1ccc(-n2cc(-c3ccn(C4CCC(F)(F)CC4)n3)nn2)c(N2CCC3(CC2)CC3)c1` [Compound 84, N-(4-(4-(1-(4,4-difluorocyclohexyl)-1H-pyrazol-3-yl)-1H-1,2,3-triazol-1-yl)-3-(6-azaspiro[2.5]octan-6-yl)phenyl)-2-hydroxyethane-1-sulfonamide] gave an IC50 of 8.2 nM.
With `CC(CO)S(=O)(=O)Nc1ccc(-n2cc(-c3cccc(N4CCC(F)(F)CC4)n3)nn2)c(N2CCC3(CC2)CC3)c1` (stereo not shown) [Compound 85, N-(4-(4-(6-(4,4-difluoropiperidin-1-yl)pyridin-2-yl)-1H-1,2,3-triazol-1-yl)-3-(6-azaspiro[2.5]octan-6-yl)phenyl)-1-hydroxypropane-2-sulfonamide] the figure was 11 nM; with `O=S(=O)(CCO)Nc1ccc(-n2cc(-c3csc(N4CCC(F)(F)CC4)n3)nn2)c(N2CCCCC2)c1` [Compound 86, N-(4-(4-(2-(4,4-difluoropiperidin-1-yl)thiazol-4-yl)-1H-1,2,3-triazol-1-yl)-3-(piperidin-1-yl)phenyl)-2-hydroxyethane-1-sulfonamide], 27 nM.
With `Cc1cc(-c2cn(-c3ccc(NS(=O)(=O)CCO)cc3N3CCC4(CC4)C3)nn2)nc(N2CCC(F)(F)CC2)n1` [Compound 88, N-(4-(4-(2-(4,4-difluoropiperidin-1-yl)-6-methylpyrimidin-4-yl)-1H-1,2,3-triazol-1-yl)-3-(5-azaspiro[2.4]heptan-5-yl)phenyl)-2-hydroxyethane-1-sulfonamide] the figure was 120 nM; with `O=C(c1ccc(-c2cn(-c3ccc(NS(=O)(=O)CCO)cc3N3CCC4(CC3)CC4)nn2)o1)C1CCCC1` [Compound 92, N-(4-(4-(5-(cyclopentanecarbonyl)furan-2-yl)-1H-1,2,3-triazol-1-yl)-3-(6-azaspiro[2.5]octan-6-yl)phenyl)-2-hydroxyethane-1-sulfonamide], 9.6 nM; with `O=S(=O)(CCO)Nc1ccc(-n2cc(-c3nc(N4CCC(F)(F)CC4)sc3F)nn2)c(N2CCC3(CC2)CC3)c1` [Compound 93, N-(4-(4-(2-(4,4-difluoropiperidin-1-yl)-5-fluorothiazol-4-yl)-1H-1,2,3-triazol-1-yl)-3-(6-azaspiro[2.5]octan-6-yl)phenyl)-2-hydroxyethane-1-sulfonamide], 10 nM.
With `Cc1cc(-c2cn(-c3ccc(NS(=O)(=O)CCO)cc3N3CCC4(CC3)CC4)nn2)nc(N2CCCC2)n1` [Compound 98, 2-hydroxy-N-(4-(4-(6-methyl-2-(pyrrolidin-1-yl)pyrimidin-4-yl)-1H-1,2,3-triazol-1-yl)-3-(6-azaspiro[2.5]octan-6-yl)phenyl)ethane-1-sulfonamide] the figure was 12 nM.
In turn, `Cc1cc(-c2cn(-c3ccc(NS(=O)(=O)CCO)cc3N3CCC4(CC3)CC4)nn2)nc(N2CC3CC3C2)n1` (stereo not shown) [Compound 99, N-(4-(4-(2-(3-azabicyclo[3.1.0]hexan-3-yl)-6-methylpyrimidin-4-yl)-1H-1,2,3-triazol-1-yl)-3-(6-azaspiro[2.5]octan-6-yl)phenyl)-2-hydroxyethane-1-sulfonamide] had an IC50 of 8.1 nM.
As for `Cc1cc(-c2cn(-c3ccc(NS(=O)(=O)CCO)cc3N3CCC4(CC3)CC4)nn2)nc(N2CCC(F)C2)n1` (stereo not shown) [Compound 102, N-(4-(4-(2-(3-fluoropyrrolidin-1-yl)-6-methylpyrimidin-4-yl)-1H-1,2,3-triazol-1-yl)-3-(6-azaspiro[2.5]octan-6-yl)phenyl)-2-hydroxyethane-1-sulfonamide], the figure is 16 nM; as for `Cc1cc(-c2cn(-c3ccc(NS(=O)(=O)CCO)cc3N3CCC4(CC3)CC4)nn2)nc(N2CCC(C(F)F)C2)n1` (stereo not shown) [Compound 103, N-(4-(4-(2-(3-(difluoromethyl)pyrrolidin-1-yl)-6-methylpyrimidin-4-yl)-1H-1,2,3-triazol-1-yl)-3-(6-azaspiro[2.5]octan-6-yl)phenyl)-2-hydroxyethane-1-sulfonamide], 20 nM; as for `Cc1cc(-c2cn(-c3ccc(NS(=O)(=O)CCO)cc3N3CCC(C(F)F)CC3)nn2)nc(N2CCC(F)(F)CC2)c1` [Compound 104, N-(3-(4-(difluoromethyl)piperidin-1-yl)-4-(4-(6-(4,4-difluoropiperidin-1-yl)-4-methylpyridin-2-yl)-1H-1,2,3-triazol-1-yl)phenyl)-2-hydroxyethane-1-sulfonamide], 15 nM.
As to `Cc1cc(N2CCC(F)(F)CC2)nc(-n2cc(-c3ccc(NS(=O)(=O)C4CC4)cc3N3CCC4(CC3)CC4)nn2)c1` [Compound 105, N-(4-(1-(6-(4,4-difluoropiperidin-1-yl)-4-methylpyridin-2-yl)-1H-1,2,3-triazol-4-yl)-3-(6-azaspiro[2.5]octan-6-yl)phenyl)cyclopropanesulfonamide], the IC50 stood at 75 nM.
`CCS(=O)(=O)Nc1ccc(-c2cn(-c3cc(C)cc(N4CCC(F)(F)CC4)n3)nn2)c(N2CCC3(CC2)CC3)c1` [Compound 108, N-(4-(1-(6-(4,4-difluoropiperidin-1-yl)-4-methylpyridin-2-yl)-1H-1,2,3-triazol-4-yl)-3-(6-azaspiro[2.5]octan-6-yl)phenyl)ethanesulfonamide]: it took 63 nM to reach half-maximal inhibition (IC50).
Take `O=S(=O)(CCO)Nc1ccc(-c2cn(-c3ccc(F)c(S(=O)(=O)N4CC(F)(F)C4)c3)nn2)c(N2CCC3(CC2)CC3)n1` [Compound 111, N-(5-(1-(3-((3,3-difluoroazetidin-1-yl)sulfonyl)-4-fluorophenyl)-1H-1,2,3-triazol-4-yl)-6-(6-azaspiro[2.5]octan-6-yl)pyridin-2-yl)-2-hydroxyethane-1-sulfonamide]: inhibition was half-maximal at 68 nM (IC50).
As for `O=S(=O)(CCO)Nc1ccc(-c2cn(-c3cccc(OC4CCCC4)n3)nn2)c(N2CCC3(CC2)CC3)c1` [Compound 113, N-(4-(1-(6-(cyclopentyloxy)pyridin-2-yl)-1H-1,2,3-triazol-4-yl)-3-(6-azaspiro[2.5]octan-6-yl)phenyl)-2-hydroxyethane-1-sulfonamide], the figure is 23 nM.
As for `Cc1cc(-n2cc(-c3ccc(NS(=O)(=O)CCO)cc3N3CCC4(CC3)CC4)nn2)cc(N2CCC(F)(F)CC2)n1` [Compound 114], the figure is 58 nM; as for `Cc1cc(-c2cn(-c3ccc(NS(=O)(=O)CCO)cc3N3CCC4(CC3)CC4)nn2)nc(N2C[C@@H](F)[C@H](F)C2)c1` [Compound 115, N-(4-(4-(6-((3R,4R)-3,4-difluoropyrrolidin-1-yl)-4-methylpyridin-2-yl)-1H-1,2,3-triazol-1-yl)-3-(6-azaspiro[2.5]octan-6-yl)phenyl)-2-hydroxyethane-1-sulfonamide], 44 nM.
As for `CCS(=O)(=O)Nc1ccc(-n2cc(-c3cccc(S(=O)(=O)NC(C)(C)C)c3)nn2)c(N2CCC(C(F)F)CC2)c1` [Compound 118, N-(tert-butyl)-3-(1-(2-(4-(difluoromethyl)piperidin-1-yl)-4-(ethylsulfonamido)phenyl)-1H-1,2,3-triazol-4-yl)benzenesulfonamide], the figure is 15 nM; as for `Cn1cc(-c2cn(-c3ccc(NS(=O)(=O)CCO)cc3N3CCC4(CC3)CC4)nn2)nc1N1CCC(F)(F)CC1` [Compound 119, N-(4-(4-(2-(4,4-difluoropiperidin-1-yl)-1-methyl-1H-imidazol-4-yl)-1H-1,2,3-triazol-1-yl)-3-(6-azaspiro[2.5]octan-6-yl)phenyl)-2-hydroxyethane-1-sulfonamide], 42 nM; as for `CCS(=O)(=O)Nc1ccc(-n2cc(-c3ccc(F)c(S(=O)(=O)NC(C)(C)C)c3)nn2)c(N2CCC3(CC2)CC3)c1` [Compound 120, N-(tert-butyl)-5-(1-(4-(ethylsulfonamido)-2-(6-azaspiro[2.5]octan-6-yl)phenyl)-1H-1,2,3-triazol-4-yl)-2-fluorobenzenesulfonamide], 19 nM.
`CC(C)(C)NS(=O)(=O)c1cccc(-c2cn(-c3ccc(NS(=O)(=O)CCO)cc3N3CCC4(CC3)CC4)nn2)c1` [Compound 121, N-(tert-butyl)-3-(1-(4-((2-hydroxyethyl)sulfonamido)-2-(6-azaspiro[2.5]octan-6-yl)phenyl)-1H-1,2,3-triazol-4-yl)benzenesulfonamide] gave an IC50 of 14 nM.
Molecule `CC(C)(C)NS(=O)(=O)c1cccc(-c2cn(-c3ccc(NS(=O)(=O)C4(CO)CC4)cc3N3CCC4(CC3)CC4)nn2)c1` [Compound 122, N-(tert-butyl)-3-(1-(4-((1-(hydroxymethyl)cyclopropane)-1-sulfonamido)-2-(6-azaspiro[2.5]octan-6-yl)phenyl)-1H-1,2,3-triazol-4-yl)benzenesulfonamide] showed an IC50 of 18 nM.
`CCS(=O)(=O)Nc1ccc(-n2cc(-c3ccc(C(O)C4CCCC4)o3)nn2)c(N2CCC3(CC2)CC3)c1` (stereo not shown) [Compound 123, N-(4-(4-(5-(cyclopentyl(hydroxy)methyl)furan-2-yl)-1H-1,2,3-triazol-1-yl)-3-(6-azaspiro[2.5]octan-6-yl)phenyl)ethanesulfonamide] had an IC50 of 4.6 nM.
With `Cc1ncc(-c2cn(-c3ccc(NS(=O)(=O)CCO)cc3N3CCC4(CC3)CC4)nn2)nc1N1CCC(F)(F)CC1` [Compound 124, N-(4-(4-(6-(4,4-difluoropiperidin-1-yl)-5-methylpyrazin-2-yl)-1H-1,2,3-triazol-1-yl)-3-(6-azaspiro[2.5]octan-6-yl)phenyl)-2-hydroxyethane-1-sulfonamide] the figure was 7.3 nM; with `O=S(=O)(CCO)Nc1ccc(-n2cc(-c3ccc(C4=CCCC4)o3)nn2)c(N2CCC3(CC2)CC3)c1` [Compound 125, N-(4-(4-(5-(cyclopent-1-en-1-yl)furan-2-yl)-1H-1,2,3-triazol-1-yl)-3-(6-azaspiro[2.5]octan-6-yl)phenyl)-2-hydroxyethane-1-sulfonamide], 9 nM.
